# Data reported in patent publication US20250288645A1, “USE OF GsMTx4 AND GsMTx4 CONJUGATES TO IMPROVE RECOVERY FROM JOINT INJURY” (priority 2023, published 2025).
# What was measured:
# [1] = tested on: humeral head chondrocytes; assay: Explanted humeral head impact loading (2 mJ) after incubation with channel agonists; assay type: cell-based, mouse; settings: 10 μM yoda1 or 5 nM GSK101, 15 minutes, 2 mJ load; for humeral head chondrocyte cell death following impact loading, female mice: relative to control media; for humeral head chondrocyte cell death following impact loading, male mice: relative to controls (DMSO 0.25%)
# Description: Ethical approval was obtained from the appropriate institutional committee Humeri were harvested from wild-type 12-22 week old C57Bl/6 male and female mice. Each specimen was placed in calcium imaging buffer with 2 mM calcium chloride and subsequently incubated with 10 μM calcein-AM for 30 minutes at 37° C. To indicate intracellular esterase activity of living cells, each specimen was incubated with 10 μM yoda1, a Piezo1-specific agonist, 5 nM GSK101, a TRPV4-agonist, or control (DMSO 0.25%, n=7-10/group) in calcium imaging buffer for 15 minutes. Specimens were then incubated with 1.5 nM ethidium homodimer-1 for 3 minutes to indicate loss of plasma membrane integrity in dead cells. The specimen was then arranged in a custom 3-D printed holding device such that the chondrocytes within the apex of sphericity of the humeral head were facing the glass well of a dish to be imaged on an inverted confocal microscope. A baseline confocal image with overlay of 100 μm Z-stacks was obtained with 488 and 594 nm wavelengths to image live and dead cells, respectively. The humerus was then transferred to a custom impact loading apparatus. A 2 mJ load was applied to the lateral aspect of the proximal humerus, such that the convex apex of the humeral head cartilage was impacted against the glass microscope dish. A 2 mJ load was chosen based on preliminary work by Kotelsky to define mechanic-vulnerability of distal femur and proximal humerus articular chondrocytes in the custom loading apparatus. The samples were again incubated in ethidium homodimer-1. A post-injury confocal image with overlay of 100 μm Z-stacks was obtained. A custom MATLAB image processing algorithm was developed to quantify cell viability. The confocal images were processed as maximum intensity projections with threshold via Otsu's method. Then, watershed segmentation, distance transform, and centroid approximation algorithms were created and applied to segment and quantify individual cells based on intensity values. This facilitated the cell counting process, allowed quantification of the total cell area, and allowed adjustment of the region of interest between before- and after-impact micrographs.
# chondrocytes = assay: Cartilage pre-treated with Yoda1: chondrocyte vulnerability to mechanical injury; assay type: cell-based, murine; settings: cartilage pre-treated with Yoda1, versus vehicle-treated controls in contralateral limbs
Compound,"humeral head chondrocyte cell death following impact loading, female mice [1]","humeral head chondrocyte cell death following impact loading, male mice [1]",chondrocyte vulnerability to mechanical injury (chondrocytes)
CC(C)C[C@H](NC(=O)c1cc2ccccc2s1)C(=O)N1CCN(C(=O)[C@H](CO)NS(=O)(=O)c2ccc(Cl)cc2Cl)CC1 [Gsk101],nor was incubation with Gsk101 chondroprotective,statistically significant decrease in humeral head chondrocyte cell death,–
Clc1cccc(Cl)c1CSc1nnc(-c2cnccn2)s1 [Yoda1],not a significant increase in chondrocyte cell death,statistically significant increase in humeral head chondrocyte cell death,significantly higher chondrocyte vulnerability
